How the values were obtained:
[1] = molecular target: Nanoluc_DDB1 (N-terminal Nanoluc luciferase, G4S linker, DDB1 (FL)) (UniProt Q16531); experiment: NanoBRET in HEK293T cells, 10 µM compound Example 3-48; class B = 3-4 fold increase
[2] = molecular target: T1, DDB1-CDK12/Cyclin K ternary complex (Homo sapiens, UniProt Q16531+Q9NYV4); experiment: NanoBRET fold-change assay (HaloTag_CDK12 / NanoLuc_DDB1 in HEK293T); type: cell-based; details: 10 μM compound, 10 minutes
T1 construct: expressed in transfected cells; host or cells: HEK293T wildtype cells, transient PEI transfection
Method in brief: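 HEK293T cells transiently co-transfected with HaloTag_CDK12 and NanoLuc_DDB1, labelled overnight with 100 nM HaloTag 618 ligand (DMSO no-ligand control), then treated with compound at 10 μM final for 10 min at room temperature. BRET read as 460 nm donor and 647 nm acceptor emission after Nano-Glo substrate; reported as fold change.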

[3] = molecular target: T1, DDB1-CDK12/Cyclin K ternary complex; experiment: NanoBRET EC50 assay (HaloTag_CDK12 / NanoLuc_DDB1 in HEK293T); type: cell-based
Method in brief: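 DDB1–CDK12/Cyclin K recruitment measured by NanoBRET in HEK293T transiently co-transfected with HaloTag_CDK12 and NanoLuc_DDB1 and labelled overnight with 100 nM HaloTag 618 ligand. Compounds titrated 10-point, 1:4 from 20 μM, 10 min at room temperature. Donor 460 nm and acceptor 647 nm emission read after Nano-Glo substrate.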

KBM7 cells (wild-type) = experiment: KBM7 CTG EC50 assay (UBE2M wild-type); type: cell-based, human
Method in brief: (§1)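 Wild-type KBM7 cells, or KBM7 cells with a hypomorphic UBE2M mutation that impairs Cullin-RING ligase activity, were treated for 72 h with compounds in a 10-point, 1:4 titration (0 to 20 μM). Viability was read by CellTiter-Glo 2.0 luminescence.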

[4] = tested on: KBM7 cells harboring a hypomorphic UBE2M mutation; experiment: KBM7 CTG EC50 assay (UBE2M knock-out); type: cell-based; details: Homo sapiens, KBM-7; 72 h incubation, CellTiter-Glo; read-out: KBM7 CTG EC50 (UBE2M knock-out) Activity Class
Method in brief: as §1

CCNK = experiment: NanoLuc-CCNK degradation assay (HEK293T_Nluc_CCNK-tagged cells); type: cell-based; details: 4 h incubation, HEK293T_Nluc_CCNK-tagged cells; read-out: NanoLuc-CCNK degradation DC50 Activity Class
Method in brief: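 HEK293T cells with nanoluciferase knocked in at the N-terminus of endogenous CCNK (CRISPR) exposed to a 10-point titration (0 to 10 μM, 1:4) in Opti-MEM I + 4% FBS for 4 h. Nano-Glo substrate then added and luminescence read as a measure of Cyclin K abundance.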

[5] = molecular target: T2, Cdk12 (696-1,082)/CycK (1-267) protein complex (Homo sapiens, UniProt Q9NYV4); experiment: Cdk12 [high ATP] in vitro kinase activity assay; type: biochemical; details: physiological ATP concentrations (1 mM ATP), 50 μM compound
T2 construct: Cdk12 (696-1,082)/CycK (1-267) protein complex
Description: This assay on recombinant proteins allows assessment of the extent of inhibition of CDK12 kinase activity of compounds. The added benefit of Cyclin K degradation as opposed to CDK12 inhibition alone can thereby be estimated. The observed disconnect between CDK12 inhibition and efficacy in the KBM7 cell viability assay supports an important contribution of Cyclin K degradation to the therapeutic effect.
Kinase reactions (50 μl) were carried out with recombinant highly purified proteins. Cdk12 (696-1,082)/CycK (1-267) protein complex (0.5 μM) was preincubated with 50 μM of compound and vehicle control (DMSO) for 10 minutes at room temperature in kinase buffer (40 mM Tris pH 7.5, 20 mM MgCl2, 0.1 mg/ml BSA) prior the addition of pS7-CTD substrate peptide (Ac-YSPTSP-pS-YSPTSP-pS-YSPTSP-pS-Y-PEG2-RR-amide, 95% purity, Biosyntan, Germany) (100 μM) and further 10 min incubation at room temperature. Cold ATP (to a final concentration of 1 mM) was added, and the reaction mixture was incubated for 60 min at 30° C. at 500 rpm. Kinase activity was determined using the ADP-Glo™ Kinase Assay (Promega). The luminescence signal was measured using the multimode plate reader EnVision 2105 (Perkin Elmer).
Uniprot protein codes: (Cdk12) Q9NYV4, (CycK) 075909

Cyclin K = details: cited from earlier work

T1 sequence (Q9NYV4 whole entry): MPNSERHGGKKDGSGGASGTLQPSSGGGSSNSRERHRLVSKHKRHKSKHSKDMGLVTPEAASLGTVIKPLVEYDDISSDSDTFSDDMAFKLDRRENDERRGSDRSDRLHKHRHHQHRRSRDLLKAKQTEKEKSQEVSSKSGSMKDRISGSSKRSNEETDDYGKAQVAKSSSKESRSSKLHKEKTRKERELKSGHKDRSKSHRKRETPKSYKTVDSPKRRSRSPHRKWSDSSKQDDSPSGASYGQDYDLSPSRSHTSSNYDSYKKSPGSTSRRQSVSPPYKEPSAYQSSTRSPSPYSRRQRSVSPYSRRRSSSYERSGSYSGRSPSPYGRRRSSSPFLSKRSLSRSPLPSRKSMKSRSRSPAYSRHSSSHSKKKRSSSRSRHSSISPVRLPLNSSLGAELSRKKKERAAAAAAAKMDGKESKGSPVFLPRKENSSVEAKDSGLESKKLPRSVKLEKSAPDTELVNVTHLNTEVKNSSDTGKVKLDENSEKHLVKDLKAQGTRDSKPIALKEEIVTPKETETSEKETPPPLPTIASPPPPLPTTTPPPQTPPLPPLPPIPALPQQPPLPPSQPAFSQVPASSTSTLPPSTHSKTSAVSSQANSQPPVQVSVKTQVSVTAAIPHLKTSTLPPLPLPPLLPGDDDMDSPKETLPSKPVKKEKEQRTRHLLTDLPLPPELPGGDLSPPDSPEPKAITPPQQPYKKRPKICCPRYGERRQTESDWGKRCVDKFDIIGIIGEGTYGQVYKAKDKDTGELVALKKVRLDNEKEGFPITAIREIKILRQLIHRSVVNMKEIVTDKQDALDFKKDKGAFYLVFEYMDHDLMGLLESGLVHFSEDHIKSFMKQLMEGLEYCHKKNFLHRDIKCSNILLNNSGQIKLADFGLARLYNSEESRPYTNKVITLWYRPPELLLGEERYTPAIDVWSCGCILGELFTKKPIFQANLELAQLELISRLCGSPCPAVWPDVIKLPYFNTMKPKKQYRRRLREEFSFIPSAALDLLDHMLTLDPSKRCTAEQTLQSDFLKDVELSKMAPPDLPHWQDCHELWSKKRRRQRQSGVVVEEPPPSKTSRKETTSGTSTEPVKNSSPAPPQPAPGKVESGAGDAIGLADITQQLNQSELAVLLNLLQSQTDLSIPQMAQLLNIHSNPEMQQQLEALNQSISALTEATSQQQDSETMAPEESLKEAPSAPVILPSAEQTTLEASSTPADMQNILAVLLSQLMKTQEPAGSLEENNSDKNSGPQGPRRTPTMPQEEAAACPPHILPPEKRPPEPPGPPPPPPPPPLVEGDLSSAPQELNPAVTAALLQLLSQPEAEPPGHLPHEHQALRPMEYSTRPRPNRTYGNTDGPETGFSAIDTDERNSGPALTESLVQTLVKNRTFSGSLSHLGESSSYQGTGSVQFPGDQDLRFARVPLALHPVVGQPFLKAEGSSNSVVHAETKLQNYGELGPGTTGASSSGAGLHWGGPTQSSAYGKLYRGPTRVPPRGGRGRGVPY
T1 sequence (Q16531 whole entry): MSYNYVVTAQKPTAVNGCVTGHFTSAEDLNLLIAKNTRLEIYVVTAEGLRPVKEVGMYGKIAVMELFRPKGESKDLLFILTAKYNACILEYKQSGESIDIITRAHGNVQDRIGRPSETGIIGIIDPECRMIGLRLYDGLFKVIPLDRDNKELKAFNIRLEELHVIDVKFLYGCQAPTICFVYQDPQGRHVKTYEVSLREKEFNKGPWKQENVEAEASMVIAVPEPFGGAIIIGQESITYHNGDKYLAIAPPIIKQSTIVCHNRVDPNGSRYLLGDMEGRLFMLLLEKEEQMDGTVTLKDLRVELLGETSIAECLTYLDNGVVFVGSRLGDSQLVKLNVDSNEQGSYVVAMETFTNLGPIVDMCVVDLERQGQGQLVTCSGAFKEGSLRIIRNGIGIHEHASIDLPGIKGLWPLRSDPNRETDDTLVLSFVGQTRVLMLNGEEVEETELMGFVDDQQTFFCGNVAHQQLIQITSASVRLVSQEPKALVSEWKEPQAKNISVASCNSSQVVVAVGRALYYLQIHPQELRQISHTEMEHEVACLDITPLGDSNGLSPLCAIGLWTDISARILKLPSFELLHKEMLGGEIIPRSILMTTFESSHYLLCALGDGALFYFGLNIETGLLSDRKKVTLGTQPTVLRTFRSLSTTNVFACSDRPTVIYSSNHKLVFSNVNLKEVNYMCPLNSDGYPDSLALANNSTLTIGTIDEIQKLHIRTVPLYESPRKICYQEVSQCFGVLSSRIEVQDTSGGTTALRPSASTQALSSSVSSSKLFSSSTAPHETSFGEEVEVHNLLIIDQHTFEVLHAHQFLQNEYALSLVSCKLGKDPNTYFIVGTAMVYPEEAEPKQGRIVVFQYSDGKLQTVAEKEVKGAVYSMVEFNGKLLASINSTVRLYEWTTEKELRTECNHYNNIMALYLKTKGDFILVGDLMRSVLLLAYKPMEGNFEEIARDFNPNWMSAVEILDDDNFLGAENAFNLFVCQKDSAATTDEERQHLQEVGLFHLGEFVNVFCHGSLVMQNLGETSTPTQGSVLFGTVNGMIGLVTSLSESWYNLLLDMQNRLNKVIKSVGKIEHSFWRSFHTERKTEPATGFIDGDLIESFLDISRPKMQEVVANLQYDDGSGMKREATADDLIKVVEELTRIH
T1 sequence (O75909 whole entry partner): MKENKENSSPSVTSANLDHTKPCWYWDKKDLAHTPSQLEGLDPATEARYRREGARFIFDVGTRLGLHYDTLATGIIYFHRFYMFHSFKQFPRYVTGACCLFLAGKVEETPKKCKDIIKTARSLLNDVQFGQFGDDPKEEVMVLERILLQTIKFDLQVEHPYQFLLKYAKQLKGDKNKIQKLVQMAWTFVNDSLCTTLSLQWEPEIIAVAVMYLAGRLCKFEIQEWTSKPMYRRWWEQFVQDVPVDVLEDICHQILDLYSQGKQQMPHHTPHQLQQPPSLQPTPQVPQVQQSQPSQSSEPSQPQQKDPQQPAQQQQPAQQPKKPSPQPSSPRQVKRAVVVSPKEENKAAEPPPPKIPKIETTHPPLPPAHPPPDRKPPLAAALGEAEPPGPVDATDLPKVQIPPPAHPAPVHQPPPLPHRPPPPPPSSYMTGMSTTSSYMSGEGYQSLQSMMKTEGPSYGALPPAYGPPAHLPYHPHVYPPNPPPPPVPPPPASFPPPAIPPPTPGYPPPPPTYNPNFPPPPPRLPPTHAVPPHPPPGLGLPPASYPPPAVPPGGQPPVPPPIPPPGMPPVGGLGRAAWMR
T2 sequence (Q9NYV4 696-1082 limits assumed): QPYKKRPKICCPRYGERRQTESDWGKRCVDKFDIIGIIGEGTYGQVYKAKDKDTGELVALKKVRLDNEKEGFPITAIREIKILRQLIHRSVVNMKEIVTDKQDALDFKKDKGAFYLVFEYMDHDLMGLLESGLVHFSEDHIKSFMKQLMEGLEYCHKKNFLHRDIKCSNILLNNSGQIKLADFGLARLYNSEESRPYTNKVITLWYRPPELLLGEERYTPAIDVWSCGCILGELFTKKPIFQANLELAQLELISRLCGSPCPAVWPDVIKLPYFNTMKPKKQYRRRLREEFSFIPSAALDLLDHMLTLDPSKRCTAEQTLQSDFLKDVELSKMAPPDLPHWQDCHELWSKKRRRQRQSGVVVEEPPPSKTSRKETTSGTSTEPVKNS
T2 sequence (O75909 1-267 partner limits assumed): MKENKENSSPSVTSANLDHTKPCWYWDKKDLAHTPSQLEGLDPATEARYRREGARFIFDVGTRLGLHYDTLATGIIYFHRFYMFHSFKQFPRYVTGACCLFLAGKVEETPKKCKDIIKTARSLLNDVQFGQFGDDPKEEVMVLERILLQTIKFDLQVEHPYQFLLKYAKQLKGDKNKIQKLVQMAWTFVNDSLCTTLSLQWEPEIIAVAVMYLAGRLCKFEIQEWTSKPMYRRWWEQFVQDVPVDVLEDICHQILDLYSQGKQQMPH
Sequence of Nanoluc_DDB1 (N-terminal Nanoluc luciferase, G4S linker, DDB1 (FL)) (Q16531 other isoform, or with tags, fused parts or gaps): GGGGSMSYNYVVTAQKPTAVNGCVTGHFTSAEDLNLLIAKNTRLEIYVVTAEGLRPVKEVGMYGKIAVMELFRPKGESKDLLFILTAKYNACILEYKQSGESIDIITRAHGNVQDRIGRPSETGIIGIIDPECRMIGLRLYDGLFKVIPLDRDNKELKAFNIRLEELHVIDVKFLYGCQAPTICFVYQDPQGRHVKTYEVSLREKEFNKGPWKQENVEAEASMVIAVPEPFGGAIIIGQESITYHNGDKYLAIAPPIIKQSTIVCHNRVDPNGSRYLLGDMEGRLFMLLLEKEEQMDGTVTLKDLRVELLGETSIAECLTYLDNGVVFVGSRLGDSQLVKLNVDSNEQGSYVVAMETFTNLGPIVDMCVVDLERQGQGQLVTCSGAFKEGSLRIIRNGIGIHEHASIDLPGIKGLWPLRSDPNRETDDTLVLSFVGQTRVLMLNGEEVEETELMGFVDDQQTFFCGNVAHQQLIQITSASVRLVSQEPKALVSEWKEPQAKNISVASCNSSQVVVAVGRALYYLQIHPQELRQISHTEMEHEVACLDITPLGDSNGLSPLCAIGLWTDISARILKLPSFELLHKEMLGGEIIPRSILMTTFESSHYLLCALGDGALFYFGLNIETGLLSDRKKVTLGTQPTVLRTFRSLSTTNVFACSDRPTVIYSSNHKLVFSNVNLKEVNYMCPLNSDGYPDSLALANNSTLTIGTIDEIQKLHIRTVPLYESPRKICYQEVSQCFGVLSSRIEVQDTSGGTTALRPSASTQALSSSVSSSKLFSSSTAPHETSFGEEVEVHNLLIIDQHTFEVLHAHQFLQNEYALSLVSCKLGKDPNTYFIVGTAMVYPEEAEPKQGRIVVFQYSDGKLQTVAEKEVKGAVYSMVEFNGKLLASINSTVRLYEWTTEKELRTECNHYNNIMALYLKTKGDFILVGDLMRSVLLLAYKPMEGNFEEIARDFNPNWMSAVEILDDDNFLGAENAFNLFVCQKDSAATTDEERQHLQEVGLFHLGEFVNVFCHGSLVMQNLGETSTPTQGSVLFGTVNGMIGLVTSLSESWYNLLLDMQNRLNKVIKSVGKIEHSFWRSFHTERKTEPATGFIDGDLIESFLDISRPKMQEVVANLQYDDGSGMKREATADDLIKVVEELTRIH

## HaloTag_CDK12 (N-terminal HaloTag, G4S linker, CDK12 (713-1052)) (from UniProt Q9NYV4 713-1052) (HEK293T cells)
[1]
  NanoBRET fold increase: 3 to 4 fold

## O=C(Cc1cnc2ccccc2c1)Nc1ncc(C(F)(F)F)s1 [Example 3-36, 2-(quinolin-3-yl)-N-(5-(trifluoromethyl)thiazol-2-yl)acetamide]
[2]
  NanoBRET fold-change Activity Class: C (2-3 fold increase)
[3]
  activity in NanoBRET assay (ternary complex formation), in words: good activity
[3]; 10-point titration from 20 μM, HEK293T
  NanoBRET EC50 Activity Class: B (0.50 μM≤EC50≤0.25 μM)
KBM7 cells (wild-type); Homo sapiens, KBM-7, 72 h incubation, CellTiter-Glo, read-out: KBM7 CTG EC50 (UBE2M wild-type) Activity Class
  EC50: ≤ 250 nM
KBM7 cells (wild-type); KBM7
  activity in KBM7 cytotoxicity assay, in words: extremely potent activity
[4]
  EC50: ≤ 250 nM
CCNK
  DC50: ≤ 100 nM
[5]
  Cdk12 inhibition, in words: weak Cdk12 inhibition

## CC[C@H](CO)Nc1nc(NCc2ccc(-c3ccccn3)cc2)c2ncn(C(C)C)c2n1 [CR8]
Cyclin K
  Cyclin K degradation, in words: cause Cyclin K degradation

— US20240132485A1, “HETEROCYCLIC CULLIN RING UBIQUITIN LIGASE COMPOUNDS AND USES THEREOF” (CEMM - FORSCHUNGSZENTRUM FÜR MOLEKULARE MEDIZIN GMBH, priority 2020, published 2024)
